Test [1] deals with Sodium-dependent serotonin transporter (Rattus norvegicus, UniProt P31652). As to the kind of experiment: Inhibition of [1,2-3H]serotonin reuptake in rat cerebral cortex SERT. The format is tissue-based.
Test [2] addresses Sodium-dependent dopamine transporter (Rattus norvegicus, UniProt P23977). As to the kind of experiment: Inhibition of [ring 2,5,6-3H]dopamine reuptake in rat striatum DAT. The format is tissue-based.
Test [3] has as its target Norepinephrine transporter (Rattus norvegicus, UniProt Q9WTR4). As to the kind of experiment: Inhibition of [ring 2,5,6-3H]dopamine reuptake in rat cerebral cortex NET. The format is tissue-based.
The species named for test [4] is Rattus norvegicus. As to the kind of experiment: Selectivity ratio of Ki for rat striatum DAT to Ki for rat cerebral cortex SERT. Format: tissue-based.
Test [5] concerns the target Sodium-dependent serotonin transporter (Rattus norvegicus) (UniProt P31652). As to the kind of experiment: Ratio of fluoxetine Ki to compound Ki for rat cerebral cortex SERT. The format is tissue-based.
Test [6] is filed under the species Rattus norvegicus. As to the kind of experiment: Selectivity ratio of Ki for rat cerebral cortex NET to Ki for rat cerebral cortex SERT.

Norepinephrine transporter, sequence (Q9WTR4 whole entry): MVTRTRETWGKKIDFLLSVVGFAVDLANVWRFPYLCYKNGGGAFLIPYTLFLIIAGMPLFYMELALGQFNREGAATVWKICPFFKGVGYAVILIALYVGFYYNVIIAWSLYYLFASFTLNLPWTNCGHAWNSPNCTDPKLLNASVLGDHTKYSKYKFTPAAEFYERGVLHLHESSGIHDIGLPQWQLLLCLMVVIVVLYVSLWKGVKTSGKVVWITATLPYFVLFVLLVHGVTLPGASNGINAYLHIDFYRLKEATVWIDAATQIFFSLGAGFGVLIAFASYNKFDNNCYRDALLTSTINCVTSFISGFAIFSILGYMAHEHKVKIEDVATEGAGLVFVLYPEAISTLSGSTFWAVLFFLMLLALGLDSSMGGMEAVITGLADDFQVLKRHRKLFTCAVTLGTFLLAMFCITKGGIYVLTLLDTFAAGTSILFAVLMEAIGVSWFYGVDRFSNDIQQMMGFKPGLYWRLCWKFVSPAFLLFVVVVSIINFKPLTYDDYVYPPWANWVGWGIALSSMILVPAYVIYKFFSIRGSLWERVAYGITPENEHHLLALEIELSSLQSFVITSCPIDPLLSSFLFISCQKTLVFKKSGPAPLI
Sodium-dependent serotonin transporter, sequence (P31652 whole entry): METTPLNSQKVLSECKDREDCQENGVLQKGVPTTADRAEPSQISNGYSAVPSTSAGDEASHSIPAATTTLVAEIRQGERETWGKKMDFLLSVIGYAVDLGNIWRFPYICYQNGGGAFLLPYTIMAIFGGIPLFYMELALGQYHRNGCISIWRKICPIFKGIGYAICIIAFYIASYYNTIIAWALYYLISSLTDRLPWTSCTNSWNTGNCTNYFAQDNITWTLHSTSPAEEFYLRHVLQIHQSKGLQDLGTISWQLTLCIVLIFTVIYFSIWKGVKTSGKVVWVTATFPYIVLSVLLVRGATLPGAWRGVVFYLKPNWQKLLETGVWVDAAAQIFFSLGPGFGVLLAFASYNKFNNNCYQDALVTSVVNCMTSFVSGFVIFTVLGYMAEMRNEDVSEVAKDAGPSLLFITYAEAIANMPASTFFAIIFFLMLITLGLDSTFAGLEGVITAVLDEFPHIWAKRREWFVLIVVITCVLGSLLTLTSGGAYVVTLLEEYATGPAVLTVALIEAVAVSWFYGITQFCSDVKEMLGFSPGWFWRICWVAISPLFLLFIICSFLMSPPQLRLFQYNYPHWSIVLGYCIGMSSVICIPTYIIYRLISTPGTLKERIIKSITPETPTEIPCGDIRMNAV
Sodium-dependent dopamine transporter, sequence (P23977 whole entry): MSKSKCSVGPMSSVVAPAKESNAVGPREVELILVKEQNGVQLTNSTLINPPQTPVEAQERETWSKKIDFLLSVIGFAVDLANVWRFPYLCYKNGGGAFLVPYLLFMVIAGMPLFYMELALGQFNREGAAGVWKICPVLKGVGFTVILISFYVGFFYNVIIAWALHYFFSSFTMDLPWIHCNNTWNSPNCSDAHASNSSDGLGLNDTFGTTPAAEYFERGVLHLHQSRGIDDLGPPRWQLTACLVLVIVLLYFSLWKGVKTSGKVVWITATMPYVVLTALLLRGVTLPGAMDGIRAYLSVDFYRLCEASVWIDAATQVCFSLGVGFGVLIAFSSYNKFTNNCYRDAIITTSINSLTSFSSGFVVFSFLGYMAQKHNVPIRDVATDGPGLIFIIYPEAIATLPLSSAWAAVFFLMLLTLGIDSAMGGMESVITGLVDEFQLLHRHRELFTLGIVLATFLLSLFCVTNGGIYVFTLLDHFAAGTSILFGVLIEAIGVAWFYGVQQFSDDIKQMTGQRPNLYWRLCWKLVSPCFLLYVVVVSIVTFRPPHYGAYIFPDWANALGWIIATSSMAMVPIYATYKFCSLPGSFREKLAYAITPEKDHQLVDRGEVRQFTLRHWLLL
Sodium-dependent serotonin transporter (Rattus norvegicus), sequence (P31652 whole entry): as the sequence (P31652 whole entry) above

As to `COc1ccc(CN[C@@H]2CO[C@H](C(c3ccccc3)c3ccccc3)C[C@H]2O)c(F)c1`, the Ki (as a rule, a dissociation constant, usually derived from enzyme kinetics or from competition with a known ligand) in test [1] was 64 nM; in test [2], 51.8 nM; in test [3], 9.33 nM. Regarding `COc1ccc(CN[C@@H]2CO[C@H](C(c3ccccc3)c3ccccc3)C[C@H]2O)cc1O`, the affinity in test [3], expressed as Ki, was 30.2 nM. On to `O[C@@H]1C[C@@H](C(c2ccccc2)c2ccccc2)OC[C@H]1NCc1ccc2occc2c1`, for which affinity in test [3] was put at a Ki of 33.6 nM. As to `Oc1ccc(CN[C@H]2CC[C@@H](C(c3ccc(F)cc3)c3ccc(F)cc3)OC2)cc1`, the results for the Ki in test [1] and in test [3] were 334 nM and 13.4 nM, respectively.

On to `COc1ccc(CN[C@@H]2CO[C@H](C(c3ccccc3)c3ccccc3)C[C@H]2O)cc1F`, for which the results for the Ki in test [1], in test [2] and in test [3] were 9.02 nM, 48.2 nM and 41.6 nM, respectively. In test [3], `O[C@@H]1C[C@@H](C(c2ccc(F)cc2)c2ccc(F)cc2)OC[C@H]1NCc1ccc2occc2c1` registered an inhibition constant Ki of 26.5 nM. Turning to `c1ccc(C(c2ccccc2)[C@@H]2CC[C@H](NCc3ccc4occc4c3)CO2)cc1`, the Ratio Ki in the test listed under Rattus norvegicus [4] turned out to be 115; in test [5], 20; in the test filed under Rattus norvegicus [6] it was 35. The same compound gave a Ki in test [3] of 25.2 nM. For the compound `Oc1cc(O)cc(CN[C@@H]2CO[C@H](C(c3ccccc3)c3ccccc3)C[C@H]2O)c1`, the Ki in test [3] came to 152 nM. With `O[C@@H]1C[C@@H](C(c2ccc(F)cc2)c2ccc(F)cc2)OC[C@H]1NCc1ccc2c(c1)OCO2`, the Ki in test [1] was 400 nM; in test [3], 10.2 nM.

Turning to `COc1cccc(CN[C@@H]2CO[C@H](C(c3ccc(F)cc3)c3ccc(F)cc3)C[C@H]2O)c1`, the affinity in test [3] corresponds to a Ki of 28.8 nM. With `COc1cc(O)cc(CN[C@@H]2CO[C@H](C(c3ccccc3)c3ccccc3)C[C@H]2O)c1`, the Ki in test [3] turned out to be 44.2 nM. As to `COc1cc(CN[C@@H]2CO[C@H](C(c3ccccc3)c3ccccc3)C[C@H]2O)ccc1O`, the Ki in test [1] stood at 223 nM; in test [3] it was 33.7 nM. In turn, `O[C@@H]1C[C@@H](C(c2ccc(F)cc2)c2ccc(F)cc2)OC[C@H]1NCc1ccc2c(c1)CCO2` yielded a Ki in test [3] of 25.8 nM. Regarding `Oc1ccc(CN[C@@H]2CO[C@H](C(c3ccc(F)cc3)c3ccc(F)cc3)C[C@H]2O)cc1F`, the Ki in test [2] was determined as 13.1 nM; in test [3], 7.37 nM. For the compound `COc1cccc(CN[C@@H]2CO[C@H](C(c3ccccc3)c3ccccc3)C[C@H]2O)c1`, the Ki in test [3] came out at 5.85 nM. For `COc1ccc(CN[C@@H]2CO[C@H](C(c3ccccc3)c3ccccc3)C[C@H]2O)cn1`, the Ki came out at 42.2 nM in test [1], 44.1 nM in test [2] and 38.1 nM in test [3]. Consider `COc1ccc(CN[C@@H]2CO[C@H](C(c3ccc(F)cc3)c3ccc(F)cc3)C[C@H]2O)cn1`, for which the affinity in test [3], expressed as Ki, was 28.4 nM.

Consider `COc1cc(O)cc(CN[C@@H]2CO[C@H](C(c3ccc(F)cc3)c3ccc(F)cc3)C[C@H]2O)c1`, for which, in test [3], the affinity corresponds to a Ki of 4.91 nM.

As to `COc1cc(CN[C@@H]2CO[C@H](C(c3ccc(F)cc3)c3ccc(F)cc3)C[C@H]2O)ccc1O`, the affinity in test [3], expressed as Ki, was 4.76 nM.

The record behind these values is ChEMBL document CHEMBL3397029, “Development of potent dopamine-norepinephrine uptake inhibitors (DNRIs) based on a (2S,4R,5R)-2-benzhydryl-5-((4-methoxybenzyl)amino)tetrahydro-2H-pyran-4-ol molecular template” (Bioorg Med Chem, 2015).
